Measurements reported in EP0317873B1, “Radioiodinated benzamides and method of their use as radioimaging agents” (THE VANDERBILT UNIVERSITY, priority 1987, dated 1989).
pIC50, pKd: −log10 of the molar value.

Assays:
[1] = biological target: T1, D-2 receptor (Rattus norvegicus, UniProt P61169); test: Displacement of [125I](S)-II binding to rat striatal membranes (receptor binding assay); details: radioligand concentration 0.46 nM, nonspecific binding in the presence of 10 µM of (S)-II, 30 min at 37°C, read-out: [¹²⁵I]-(S) II binding IC₅₀
T1 construct: 90 µL of the striatal membrane preparation; from tissue; host or cells: rat striatum (membrane preparation)
Description: Lett. 64:163-168 (1986). […] Male Sprague-Dawley rats (150-200 g) were killed by decapitation and their brains quickly removed and dissected on ice. Striata were dissected and homogenized in 40 vol of ice-cold Tris-HCl (50 mM) containing 123 mM NaCl, 5 mM KCl, 2 mM CaCl₂ and 1 mM MgCl₂ (pH 7.4) using a Brinkman Polytron. The suspension was centrifuged at 30,000 x g for 10 min at 4°C, and the pellet was resuspended in 40 vol of fresh buffer with polytron. The suspension was incubated at 37°C for 10 min, centrifuged again at 30,000 x g for 10 min (4°C) and the final pellet was resuspended with the polytron in 200 vol of ice cold buffer. […] Nonspecific binding was determined in the presence of 10 µM[…]. Tubes were incubated for 30 min at 37°C, poured over Whatman GF/B filters under vacuum, and the filters were rinsed three times with 4 mL of ice cold buffer. Radioactivity remaining on the filters was measured by liquid scintillation on a Quantum 9 Multichannel analyzer operating at 35% efficiency.

[2] = biological target: T1, D-2 receptor; test: Displacement of [3H]sulpiride binding to rat striatal membranes (receptor binding assay); details: read-out: [³H]sulpiride binding IC₅₀, radioligand concentration 2.9 nM, nonspecific binding in the presence of 10 µM sulpiride, 30 min at 37°C
Description: Lett. 64:163-168 (1986). […] Male Sprague-Dawley rats (150-200 g) were killed by decapitation and their brains quickly removed and dissected on ice. Striata were dissected and homogenized in 40 vol of ice-cold Tris-HCl (50 mM) containing 123 mM NaCl, 5 mM KCl, 2 mM CaCl₂ and 1 mM MgCl₂ (pH 7.4) using a Brinkman Polytron. The suspension was centrifuged at 30,000 x g for 10 min at 4°C, and the pellet was resuspended in 40 vol of fresh buffer with polytron. The suspension was incubated at 37°C for 10 min, centrifuged again at 30,000 x g for 10 min (4°C) and the final pellet was resuspended with the polytron in 200 vol of ice cold buffer. Assay tubes contained […] or radioligand at 2.9 nM concentration and 90 µL of the striatal membrane preparation. Nonspecific binding was determined in the presence of 10 µM(-)[¹²⁵I](S)-II. Tubes were incubated for 30 min at 37°C, poured over Whatman GF/B filters under vacuum, and the filters were rinsed three times with 4 mL of ice cold buffer. Radioactivity remaining on the filters was measured by liquid scintillation on a Quantum 9 Multichannel analyzer operating at 35% efficiency.

[3] = biological target: T1, D-2 receptor; test: Saturation binding of [125I](S)-II to rat striatal membranes (Scatchard analysis, time course)
Description: Male Sprague-Dawley rats (150-200 g) were killed by decapitation and their brains quickly removed and dissected on ice. Striata were dissected and homogenized in 40 vol of ice-cold Tris-HCl (50 mM) containing 123 mM NaCl, 5 mM KCl, 2 mM CaCl₂ and 1 mM MgCl₂ (pH 7.4) using a Brinkman Polytron. The suspension was centrifuged at 30,000 x g for 10 min at 4°C, and the pellet was resuspended in 40 vol of fresh buffer with polytron. The suspension was incubated at 37°C for 10 min, centrifuged again at 30,000 x g for 10 min (4°C) and the final pellet was resuspended with the polytron in 200 vol of ice cold buffer. Assay tubes contained […] or radioligand at 2.9 nM concentration and 90 µL of the striatal membrane preparation. Nonspecific binding was determined in the presence of 10 µM(-)[¹²⁵I](S)-II. Tubes were incubated for 30 min at 37°C, poured over Whatman GF/B filters under vacuum, and the filters were rinsed three times with 4 mL of ice cold buffer. Radioactivity remaining on the filters was measured by liquid scintillation on a Quantum 9 Multichannel analyzer operating at 35% efficiency. […]

[4] = at 37°C, rat striatal membranes

T1 sequence (P61169 whole entry): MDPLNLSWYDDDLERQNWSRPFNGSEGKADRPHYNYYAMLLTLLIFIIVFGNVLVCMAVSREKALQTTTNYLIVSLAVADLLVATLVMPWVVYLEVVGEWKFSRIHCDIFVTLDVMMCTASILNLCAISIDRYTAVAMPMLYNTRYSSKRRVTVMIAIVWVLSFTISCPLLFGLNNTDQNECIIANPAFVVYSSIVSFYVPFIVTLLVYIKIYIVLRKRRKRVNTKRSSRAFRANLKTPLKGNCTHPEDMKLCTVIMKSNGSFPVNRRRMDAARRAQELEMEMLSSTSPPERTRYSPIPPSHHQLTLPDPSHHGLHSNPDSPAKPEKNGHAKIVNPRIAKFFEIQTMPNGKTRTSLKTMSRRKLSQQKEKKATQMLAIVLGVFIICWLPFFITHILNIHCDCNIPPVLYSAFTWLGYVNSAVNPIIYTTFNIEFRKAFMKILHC

| pIC50 [1] | pIC50 [2] | maximal number of binding sites ([3]; Scatchard analysis of the saturation isotherm, rat striatal membranes) [fmol/mg protein] | pKd ([3]; Scatchard analysis of the saturation isotherm, single set of binding sites, rat striatal membranes) | time binding remained stable [3, 4] | time for binding to reach equilibrium [3, 4] [min] | character of binding to rat striated membranes ([3]; conditions of the receptor binding assay) | Structure (SMILES) |
| --- | --- | --- | --- | --- | --- | --- | --- |
| 8.30 | – | – | – | – | – | – | CCN1CCC[C@H]1CNC(=O)c1cc(I)ccc1OC [(S)-II, (S)-N-[(1-ethyl-2-pyrrolidinyl)methyl]-5-iodo-2-methoxybenzamide] |
| 6.77 | 6.84 | – | – | – | – | – | CCN1CCC[C@@H]1CNC(=O)c1cc(I)ccc1OC [(R)-II] |
| – | – | 169 | 9.00 | at least 60 min | ≤ 20 | saturable, reversible and stereospecific | CCN1CCC[C@H]1CNC(=O)c1cc([125I])ccc1OC [Example 1] |
